What was measured:
[1] = system: miRNA expression in U251 cells; assay: GDNF-regulated miRNA expression in U251 cells quantified by hemi-nested real-time RT-PCR; assay type: cell-based, human
Protocol: Human glioblastoma cell lines A172 and U251 were cultured in DMEM supplemented with 10% fetal bovine serum (FBS, Sigma) and antibiotics (100 U/ml penicillin and 100 μg/ml streptomycin) in a 5% CO2 humidified incubator at 37° C. U251 cells were seeded at 200,000 cells per well in E-well plate for 24 h and incubated with FBS-free DMEM medium for 12-16 h. The cells were then stimulated with 100 ng/ml of GDNF for defined periods of time in DMEM. For MEK inhibitor studies, the cells were pre-incubated with 5 μM U0126 (Promega, Madison, Wis., USA) for 45 min in DMEM prior to GDNF stimulations. Total RNA from untreated or GDNF treated glioblastoma cells was isolated using TRIzol reagent (Invitrogen) in the presence of 20 μg/ml linear acrylamide (Ambion) according to the manufacturer's instructions. The extracted RNA samples were then quantified using spectrophotometry and the integrity examined by denaturing RNA gel electrophoresis. […]
Real-time PCR was performed on the CFX96 system (Bio-Rad, Hercules, Calif., USA) using SYBR GREEN™ I. Real-time PCR for precursor miRNA and U6 snRNA was performed according to previous reports (Schmittgen et al., 2004; Jiang et al., 2005). […] The threshold cycles (Ct) were calculated automatically using the CFX manager software (Bio-Rad). […]

[2] = system: ERK1/2 MAPK; assay: GDNF-induced ERK1/2 MAPK signaling activation in U251 cells (Western blot, phospho ERK1/2); assay type: cell-based, human; details: GDNF 100 ng/ml
Protocol: FIG. 18. GDNF-induced signaling activation in U251 human glioblastoma cells. Control and GDNF stimulated U251 cells were lysed with 2% SDS. Total protein lysates were quantified using microBCA protein assay (Pierce, Rockford, Ill., USA). Total protein (10 μg) were separated by SDS-PAGE and probed with antibodies against phospho ERK1/2 (Cell […] Technologies, Danvers, Mass., USA). The blots were striped in Western Blot Stripping Buffer (Pierce) and re-probed with total ERK1/2 (Cell Signaling Technologies) to verify equal loading. Chemiluminescence was imaged and analyzed by ChemiDoc system (Bio-Rad). A) Time-course of ERK1/2 MAPK activation by GDNF (100 ng/ml) in U251 cells. B) GDNF-induced ERK1/2 MAPK activation was inhibited by pre-treatment of MEK inhibitor U0126 (5 μM).
Human glioblastoma cell lines A172 and U251 were cultured in DMEM supplemented with 10% fetal bovine serum (FBS, Sigma) and antibiotics (100 U/ml penicillin and 100 μg/ml streptomycin) in a 5% CO2 humidified incubator at 37° C. U251 cells were seeded at 200,000 cells per well in E-well plate for 24 h and incubated with FBS-free DMEM medium for 12-16 h. The cells were then stimulated with 100 ng/ml of GDNF for defined periods of time in DMEM. […] The extracted RNA samples were then quantified using spectrophotometry and the integrity examined by denaturing RNA gel electrophoresis.

[3] = target: Taq polymerase (Thermus aquaticus, UniProt P19821); details: cited from earlier work
Sequence of Taq polymerase (P19821 whole entry): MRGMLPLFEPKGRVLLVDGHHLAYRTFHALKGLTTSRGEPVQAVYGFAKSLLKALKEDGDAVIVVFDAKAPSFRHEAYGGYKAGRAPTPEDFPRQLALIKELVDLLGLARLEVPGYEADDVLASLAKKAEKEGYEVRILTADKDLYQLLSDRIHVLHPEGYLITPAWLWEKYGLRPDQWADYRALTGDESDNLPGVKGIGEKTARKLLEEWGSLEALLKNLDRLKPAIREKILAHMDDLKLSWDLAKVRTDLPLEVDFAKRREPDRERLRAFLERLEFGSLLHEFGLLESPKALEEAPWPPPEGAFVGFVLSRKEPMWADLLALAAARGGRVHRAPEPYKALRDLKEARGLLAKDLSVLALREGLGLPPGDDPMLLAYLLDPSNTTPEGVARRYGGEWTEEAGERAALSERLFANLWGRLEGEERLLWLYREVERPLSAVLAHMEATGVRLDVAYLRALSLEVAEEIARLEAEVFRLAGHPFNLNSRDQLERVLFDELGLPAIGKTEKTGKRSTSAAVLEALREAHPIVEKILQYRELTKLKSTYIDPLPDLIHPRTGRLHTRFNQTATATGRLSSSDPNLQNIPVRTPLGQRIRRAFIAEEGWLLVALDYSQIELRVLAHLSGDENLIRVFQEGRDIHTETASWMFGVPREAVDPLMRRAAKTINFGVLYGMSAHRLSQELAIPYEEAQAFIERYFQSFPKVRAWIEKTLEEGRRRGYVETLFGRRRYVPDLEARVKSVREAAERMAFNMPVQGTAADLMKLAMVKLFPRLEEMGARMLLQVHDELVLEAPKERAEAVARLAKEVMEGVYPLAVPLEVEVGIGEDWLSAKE

## N#CC(=C(/N)Sc1ccccc1N)/C(C#N)=C(\N)Sc1ccccc1N [U0126]
[1]; pretreatment with U0126, 24-plex assay
  inhibition of GDNF-induced up-regulation of the 6 miRNAs: effectively inhibited
[2]; U251 cells, pre-treatment with U0126 5 μM
  inhibition of GDNF-induced ERK1/2 MAPK activation: inhibited

## Nc1ccc([C@H]2C[C@H](O)[C@@H](COP(=O)(O)OP(=O)(O)OP(=O)(O)O)O2)cn1 [d*CTP, 2-amino-5-(2′-deoxy-b-D-ribofuranosyl)pyridine-5′-triphosphate]
[3]
  inhibition in PCR catalysed by Taq polymerase: strong inhibition

## Cc1cc([C@H]2C[C@H](O)[C@@H](COP(=O)(O)OP(=O)(O)OP(=O)(O)O)O2)c[nH]c1=O [d*TTP, 5-(2′-deoxy-b-D-ribofuranosyl)-3-methyl-2-pyridone-5′-triphosphate]
[3]
  inhibition in PCR catalysed by Taq polymerase: strong inhibition

B1: GDNF: GDNF used to stimulate U251 glioblastoma cells at 100 ng/ml (protein, UniProt P39905 78-211, looked up)
Glial cell line-derived …: SPDKQMAVLPRRERNRQAAAANPENSRGKGRRGQRGKNRGCVLTAIHLNVTDLGLGYETKEELIFRYCSGSCDAAETTYDKILKNLSRNRRLVSDKVGQACCRPIAFDDDLSFLDDNLVYHILRKHSAKRCGCI
[1]; GDNF 100 ng/ml, temporal regulation
  regulation of miRNA expression (miR-7, -21, -218, let-7f, -7g, -7i), fold change to non-stimulated control: timedependent up-regulation
[2]; U251 human glioblastoma cells, time-course
  activation of ERK1/2 MAPK: induced time-dependent activation of ERK1/2 MAPK

Reference: patent US9850527B2, “Modified stem-loop oligonucleotide mediated reverse transcription and base-spacing constrained quantitative PCR” (National University of Singapore, priority 2010, dated 2017)
